# According to PMC4639722, “Dihydrotanshinone-I interferes with the RNA-binding activity of HuR affecting its post-transcriptional function” (Scientific Reports, 2015):
# B1: Cy3 TNF ARE RNA probe (ssRNA)
# RNA: AUUAUUUAUUAUUUAUUUAUUAUUUA
# Assays:
# HuD = target: T1, HuD (Homo sapiens, UniProt P26378); assay: REMSA of purified HuD with Cy3 AU-rich RNA probe; assay type: biochemical
# T1 construct: gene ELAVL4; HuD-His, expressed in HEK293T cells and purified
# HuR = target: T2, HuR (Homo sapiens, UniProt Q15717); assay: REMSA of recombinant HuR with Cy3 AU-rich RNA probe at equilibrium; assay type: biochemical
# T2 construct: gene ELAVL1; recombinant HuR (HuR-cMyc-His)
# T2 sequence (Q15717 2-326): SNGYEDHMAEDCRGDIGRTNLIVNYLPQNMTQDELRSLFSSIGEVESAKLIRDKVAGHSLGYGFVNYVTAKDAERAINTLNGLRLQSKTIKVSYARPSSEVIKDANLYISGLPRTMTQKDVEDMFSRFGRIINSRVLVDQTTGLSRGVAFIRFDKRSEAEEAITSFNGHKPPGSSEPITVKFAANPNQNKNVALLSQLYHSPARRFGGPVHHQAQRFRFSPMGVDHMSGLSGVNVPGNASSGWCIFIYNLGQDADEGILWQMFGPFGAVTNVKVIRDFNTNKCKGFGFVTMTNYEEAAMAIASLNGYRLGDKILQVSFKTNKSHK
# HuR M2_M3 = HuR M2_M3 (human, UniProt Q15717 117-326); assay: equilibrium binding, assay not stated (REMSA or AlphaScreen); no DHTS; limited effect of DHTS; REMSA/AlphaScreen buffers as in ref 23 (not given); pull-down lysates: 20 mM HEPES pH 7.5, 50 mM KCl, 0.5 ug BSA, 0.25% glycerol, 4 C; conditions: protein: recombinant; tags: His; label: 5'-Cy3; single strand
# Sequence of HuR M2_M3 (Q15717 117-326): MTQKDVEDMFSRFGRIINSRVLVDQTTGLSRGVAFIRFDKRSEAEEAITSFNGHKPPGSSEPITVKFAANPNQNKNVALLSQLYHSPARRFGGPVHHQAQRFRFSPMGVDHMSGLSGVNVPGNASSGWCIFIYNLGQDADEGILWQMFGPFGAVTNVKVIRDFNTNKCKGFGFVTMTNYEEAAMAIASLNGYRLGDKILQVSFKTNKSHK
# HuR M1_M2 = HuR M1_M2 (human, UniProt Q15717 1-197); assay: equilibrium binding, assay not stated (REMSA or AlphaScreen); no DHTS; DHTS inhibits, Ki 4.12 nM; REMSA/AlphaScreen buffers as in ref 23 (not given); pull-down lysates: 20 mM HEPES pH 7.5, 50 mM KCl, 0.5 ug BSA, 0.25% glycerol, 4 C; conditions: protein: recombinant; tags: His; label: 5'-Cy3; single strand
# Sequence of HuR M1_M2 (Q15717 1-197): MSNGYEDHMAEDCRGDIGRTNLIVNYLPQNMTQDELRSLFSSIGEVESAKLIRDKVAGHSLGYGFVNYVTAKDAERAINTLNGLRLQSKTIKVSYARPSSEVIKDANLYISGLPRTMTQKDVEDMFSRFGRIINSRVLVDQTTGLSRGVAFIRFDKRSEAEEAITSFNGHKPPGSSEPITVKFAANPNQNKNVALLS
# T1 sequence (P26378 whole entry): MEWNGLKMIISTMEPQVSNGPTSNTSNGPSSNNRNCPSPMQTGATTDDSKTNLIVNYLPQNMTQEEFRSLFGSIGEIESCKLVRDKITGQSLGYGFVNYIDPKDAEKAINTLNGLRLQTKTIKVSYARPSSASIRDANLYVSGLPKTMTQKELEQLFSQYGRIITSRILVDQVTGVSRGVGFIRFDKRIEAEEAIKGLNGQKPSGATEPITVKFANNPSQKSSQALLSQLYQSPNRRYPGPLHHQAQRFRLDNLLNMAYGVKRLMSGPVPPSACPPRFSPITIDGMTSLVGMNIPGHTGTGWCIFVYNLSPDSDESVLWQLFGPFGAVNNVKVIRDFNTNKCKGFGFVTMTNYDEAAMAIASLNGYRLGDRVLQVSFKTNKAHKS
Molecule,REMSA of recombinant HuR with Cy3 AU-rich RNA probe at equilibrium (HuR),other results
"Cc1cccc2c3c(ccc12)C1=C(C(=O)C3=O)[C@@H](C)CO1 [15,16-dihydrotanshinone-I]",–,REMSA of purified HuD with Cy3 AU-rich RNA probe (HuD): only HuD-RNA complex formation was affected by DHTS at the reference doses
C[C@H]1COC2=C1C(=O)C(=O)c1c2ccc2c1CCCC2(C)C [Cryptotanshinone],while cryptotanshinone and tanshinone IIA were less potent (micromolar range),–
"Cc1coc2c1C(=O)C(=O)c1c-2ccc2c(C)cccc12 [TanI, Tanshinone I]",the potency of tanshinone I was comparable to DHTS at equilibrium (Fig. 2B),–
"Cc1coc2c1C(=O)C(=O)c1c-2ccc2c1CCCC2(C)C [TanII, Tanshinone IIA]",while cryptotanshinone and tanshinone IIA were less potent (micromolar range),–
B1,–,Kd (HuR M2_M3): ~24 nM; Kd (HuR M1_M2): 2.66 nM
